Measurements taken from patent US12226458B2, “System for providing an up-to-date and long-acting or ultra-long-acting insulin dose guidance recommendation to treat diabetes mellitus” (Novo Nordisk A/S, priority 2018, dated 2025).

Legend:
[1] = system: patients with type 2 diabetes; conditions: self-adjusted dose every 3 days from mean of previous 3 days' SMBG; 6 months; cited from earlier work
[2] = system: insulin-naïve subjects with type 2 diabetes; assay: BEGIN ONCE SIMPLE USE 26-week randomized treat-to-target trial: HbA1c / glycemic control; assay type: in vivo, human; conditions: for HbA1c change from baseline to Week 26 / HbA1c at Week 26: IDeg OD + metformin; for Patients achieving HbA1c<7% without confirmed hypoglycemia / Subjects achieving HbA1c<7.0% at end-of-trial: 26 weeks
From the text: (§1) This 26-week, multi-center, open-label, randomized, treat-to-target study compared the efficacy and safety of IDeg administered once daily in combination with metformin in insulin-naïve subjects with type 2 diabetes using two different patient-driven titration algorithms: a “Simple” algorithm (IDegSimple), with dose adjustments based on one pre-breakfast SMBG measurement (N=111) versus a “Step-wise” algorithm (IDegStep-wise), with adjustments based on three consecutive pre-breakfast SMBG values (N=111). IDeg was administered using the FlexTouch® insulin pen (Novo Nordisk A/S, Bagsværd, Denmark), with once-weekly dose titration in both groups.
The study was conducted according to the Declaration of Helsinki (2008) and ICH Good Clinical Practice (1996) guidelines, with prior approval by appropriate ethics committees and patient consent obtained in writing prior to the start of any study-related activities. Eligible participants included insulin-naïve men or women ≥18 years of age, with type 2 diabetes, HbA1c 7.0-10.0% (inclusive), and body mass index (BMI) ≤45.0 kg/m^2, who were treated with ≥1000 mg/day metformin alone or in combination with one or two other oral antidiabetic medications (OADs) (including a sulfonylurea [SU] or glinide, dipeptidyl peptidase-4 [DPP-4] inhibitors, α-glucosidase inhibitors or thiazolidinediones [TZDs]), with unchanged dosing for ≥12 weeks prior to randomization. […] Subjects could be withdrawn from the trial due to withdrawal of consent, not fulfilling inclusion/exclusion criteria (randomized in error), non-compliance, or at the discretion of the investigator due to a safety concern. Subjects who were withdrawn after randomization were not to be replaced. This trial is registered at clinicaltrials.gov: NCT01326026.
(§2) HbA1c was analyzed using a Bio-Rad high-performance liquid chromatography method at Visits 1 (screening), 2 (randomization), 14 (Week 12) and 28 (Week 26). Fasting plasma glucose (FPG) blood samples were assayed using a hexokinase-UV method at Visits 2, 14 and 28. At the first visit, subjects were provided with a glucose meter for SMBG measurement and instructions for use; blood glucose was measured with test strips calibrated to plasma glucose to obtain PG-equivalent values presented in this report. Subjects performed SMBG measurements before breakfast weekly after randomization and also performed an 8-point SMBG profile prior to Visits 2, 14 and 28.

[3] = system: insulin-naïve subjects with type 2 diabetes; assay: BEGIN ONCE SIMPLE USE trial: fasting plasma glucose (hexokinase-UV); assay type: in vivo, human
From the text: as §1, §2

[4] = system: insulin-naïve subjects with type 2 diabetes; conditions: in vivo
From the text: This was a multinational (conducted in the US, Spain, Finland, and Germany), Phase 3b, multi-center, two-armed, parallel group, open-label, randomized, treat-to-target study that compared the efficacy and safety of IDeg OD [IDeg 100 U/mL, FlexTouch® pen, Novo Nordisk A/S, Bagsværd, Denmark], adjusted using two different titration algorithms in combination with metformin. The trial consisted of a 26-week period; total study duration was approximately 28 weeks (including 1 week for screening and a 7-day follow-up period). […]
Adverse events (AEs) and hypoglycemic episodes were documented throughout the study, with confirmed hypoglycemia defined as episodes of severe hypoglycemia (requiring assistance from another person) and episodes with PG value <3.1 mmol/L (56 mg/dL). […] Laboratory safety variables, insulin dose and body weight were recorded at pre-specified intervals.
Change from baseline in HbA1c after 26 weeks was analyzed using an analysis of variance (ANOVA) method with treatment, region, sex and antidiabetic therapy at screening as fixed factors, and age and baseline HbA1c as covariates. […] Change in FPG and change in body weight were analyzed using an ANOVA model similar to that used for the primary analysis, but with the relevant baseline value as covariate for each measure. […]

[5] = system: insulin-naïve subjects with type 2 diabetes; conditions: in vivo; remark: listed apart in the source
From the text: (§3) This was a multinational (conducted in the US, Spain, Finland, and Germany), Phase 3b, multi-center, two-armed, parallel group, open-label, randomized, treat-to-target study that compared the efficacy and safety of IDeg OD [IDeg 100 U/mL, FlexTouch® pen, Novo Nordisk A/S, Bagsværd, Denmark], adjusted using two different titration algorithms in combination with metformin. The trial consisted of a 26-week period; total study duration was approximately 28 weeks (including 1 week for screening and a 7-day follow-up period). After discontinuing all OADs other than metformin, subjects were randomized 1:1 by an interactive voice/web response system (IV/WRS) to IDegSimple or IDegStep-wise insulin self-titration algorithms, as defined below. Subjects were instructed to self-titrate in accordance with their respective algorithms and continue with their pre-trial metformin dose. At randomization, Week 4 and Week 12, subjects in both treatment arms received diet and exercise counselling by an HCP.
(§4) Adverse events (AEs) and hypoglycemic episodes were documented throughout the study, with confirmed hypoglycemia defined as episodes of severe hypoglycemia (requiring assistance from another person) and episodes with PG value <3.1 mmol/L (56 mg/dL). Nocturnal confirmed hypoglycemic episodes were those occurring between 00:01 h and 05:59 h (inclusive). Laboratory safety variables, insulin dose and body weight were recorded at pre-specified intervals.
(§5) Treatment-emergent AEs, hypoglycaemic episodes, laboratory parameters, physical examination, electrocardiogram (ECG), fundoscopy/fundusphotography, vital signs, PRO (Device-Specific questionnaires I and II) and insulin dose were summarized with descriptive statistics.
(§6) Treatment-emergent events occurring after first exposure and no later than 7 days after last exposure. Safety analysis set. n number of patients with events, % proportion of patients with events, E number of events, R number of events per 100 patient-years.

[6] = system: people with Type 2 diabetes; conditions: in vivo; cited from earlier work
[7] = system: insulin-naïve subjects with type 2 diabetes; assay: BEGIN ONCE SIMPLE USE trial: adverse events; conditions: IDegStep-wise arm; 154 days after starting trial drug, liver metastasis, considered unlikely related to treatment
From the text: as §3, §4, §5, §6

[8] = system: people with Type 2 diabetes; conditions: INSIGHT; initial dose 10 units, increased by 1 unit each day until FPG ≤5.5 mmol/liter; cited from earlier work

Substance: insulin detemir
- HbA1c versus standard-of-care, physician-driven adjustments [1]: significantly lower HbA1c

Substance: LysB29(Nε-hexadecandioyl-γ-Glu) des(B30) human insulin [IDeg]
- HbA1c change from baseline to Week 26 ([2]; IDegSimple arm (Simple titration algorithm)): −1.09%
- Patients achieving HbA1c<7% without confirmed hypoglycemia ([2]; IDegSimple arm): 40.6%
- Subjects achieving HbA1c<7.0% at end-of-trial ([2]; IDegSimple arm): 56.8%
- HbA1c at Week 26 ([2]; IDegSimple arm): 7.0%
- HbA1c change from baseline to Week 26 ([2]; IDegStep-wise arm (Step-wise titration algorithm)): −0.93%
- Patients achieving HbA1c<7% without confirmed hypoglycemia ([2]; IDegStep-wise arm): 34.6%
- Subjects achieving HbA1c<7.0% at end-of-trial ([2]; IDegStep-wise arm): 41.4%
- HbA1c at Week 26 ([2]; IDegStep-wise arm): 7.2%
- Estimated treatment difference (IDegSimple−IDegStep-wise) in HbA1c change ([2]; Week 26, 95% CI [−0.39, 0.07]): −0.16 %-points
- Non-inferiority of IDegSimple to IDegStep-wise in lowering HbA1c ([2]; Week 26, non-inferiority limit 0.4%): non-inferior
- Fasting plasma glucose at Week 26 ([3]; IDegSimple arm): 6.1 mmol/L
- Fasting plasma glucose at Week 26 ([3]; IDegStep-wise arm): 6.8 mmol/L
- Estimated treatment difference (IDegSimple−IDegStep-wise) in FPG ([3]; Week 26, 95% CI [−1.30, 0.17]): -0.57 mmol/L
- Severe hypoglycemic episodes [4]: One
- Headache: N number of patients with events [5]: 8
- SAE neoplasm event [5]: astrocytoma
- SAEs: E number of events [5]: 8
- SAEs: R number of events per 100 patient-years [5]: 15 events per 100 patient-years
- Confirmed and nocturnal confirmed hypoglycemia rates with IDeg OD versus comparator insulin glargine [6]: lower than or similar to
- Deaths [7]: One

Substance: insulin glargine
- End HbA1c [8]: 7.0%
